The values that follow come from article PMC10716780, “The multistep oxidation of cholesterol to pregnenolone by human cytochrome P450 11A1 is highly processive” (The Journal of Biological Chemistry, 2023).

“And” between values parts separate entries of the source, which are not always exact repeats. Equal entries are not always repeated.

For the data set, the target named is T1, human P450 11A1 (Homo sapiens, UniProt P05108).
T1 sequence (P05108 41-521 limits assumed): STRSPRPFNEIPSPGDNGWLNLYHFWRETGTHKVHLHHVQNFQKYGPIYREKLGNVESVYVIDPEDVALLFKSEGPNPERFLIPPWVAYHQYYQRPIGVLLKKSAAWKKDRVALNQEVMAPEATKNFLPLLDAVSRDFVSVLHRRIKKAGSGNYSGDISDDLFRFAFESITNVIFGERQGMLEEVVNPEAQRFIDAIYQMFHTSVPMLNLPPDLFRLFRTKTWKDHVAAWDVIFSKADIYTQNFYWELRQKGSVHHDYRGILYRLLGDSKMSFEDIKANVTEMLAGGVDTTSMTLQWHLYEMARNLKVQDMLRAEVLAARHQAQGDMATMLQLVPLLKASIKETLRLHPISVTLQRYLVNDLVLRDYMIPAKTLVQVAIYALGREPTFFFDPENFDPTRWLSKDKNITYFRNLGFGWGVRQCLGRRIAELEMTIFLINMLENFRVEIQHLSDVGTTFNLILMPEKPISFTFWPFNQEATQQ
T1 sequence (P00257 59-186 partner): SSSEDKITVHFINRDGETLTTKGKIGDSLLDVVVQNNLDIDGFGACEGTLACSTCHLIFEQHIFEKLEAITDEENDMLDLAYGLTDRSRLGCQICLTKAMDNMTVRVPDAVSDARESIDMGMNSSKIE
The experiment in a line: Steady-state conversion of sterols to pregnenolone by reconstituted P450 11A1 (UPLC-MS of dansyl hydrazone). The following applies: for rate of pregnenolone formation: duplicate, raw data of Fig. 5, listed as 20R,22S-(OH)2 Cholesterol. The arrangement: M A S T R S P R P F N E I P S P G D N; Met-Ala (N-terminal start residues in place of the transit peptide and Ile40) (N); made in house; host or cells: E. coli (P450 11A1 in C41(DE3); Adx and AdR in E. coli). It counts as biochemical. The procedure: Accordingly, all steady-state assays were done, unless otherwise noted, with a P450 11A1:Adx:AdR molar ratio of 1:40:2 (Fig. 2, that is, 0.25 μM P450, 10 μM Adx, and 0.5 μM AdR), in the absence of added lipid or detergent, and with the addition of sterol substrates in HPCD (stock 45% w/v).
As mentioned in the Introduction, many types of assays have been used to monitor the steady-state conversion of cholesterol to pregnenolone ([12], [14], [15], [16], [17], [18], [19], [20], [21]). A reliable and sensitive method was required that could be used for presteady-state reactions and was not reliant on the presence of isotope in cholesterol, in that, we also worked with 22R-OH cholesterol and 20R,22R-(OH)2 cholesterol as substrates. We utilized a method based on our work with P450 17A1 ([41], [42]), in which we derivatized the product pregnenolone as its dansyl hydrazone and separated it by ultra-performance liquid chromatography (UPLC) with detection by positive ion electrospray mass spectrometry (MS). The steroid dehydroepiandosterone (DHEA) was used an internal standard.
Reactions were performed by reconstituting P450 (0.25 μM), AdR (0.5 μM), and Adx (10 μM) on ice for 10 min prior to dilution in potassium Hepes buffer (50 mM, pH 7.4) and H2O and the addition of substrate (sterol, in HPCD (45% w/v)). Sterol dilutions were performed in HPCD to ensure that the HPCD composition was equal throughout all incubations (final 4.5% w/v). The reaction mixture was split between vials (425 μl in each), and reactions were preincubated (37 °C, 5 min) prior to initiation (75 μl) with an NADPH-generating system (0.5 mM NADP^+, 10 mM glucose 6-phosphate, and 2 μg ml^−1 glucose 6-phosphate dehydrogenase) ([61]). Reactions (5 min) were terminated by extraction into CH2Cl2 (2 ml) and transferred to an ice bath. After the experiment was complete, the quenched reactions were subjected to centrifugation (10^3g, 5 min, 23 °C) to separate layers, the organic (bottom) layer of each sample was removed (1.6 ml) to fresh glass vials, and the samples were brought to dryness under a stream of nitrogen.
Steroid extracts were subsequently derivatized with dansylhydrazine and analyzed as described previously ([42]). Briefly, the dried residue was resuspended (200 μl) in C2H5OH (fortified with 0.1% v/v CF3CO2H, as the derivatization reaction is H^+-catalyzed) and mixed with a vortex device. Samples were transferred to 1.5 ml amber glass vials, solutions of dansylhydrazine (10 mM) and DHEA, 10 μM, as internal standard) were added, and vials were capped, mixed with a vortex device, and incubated in the dark overnight (∼16 h, 23 °C). The derivatization reaction was quenched with acetone […], briefly incubated in the dark (∼30 min, 23 °C), and was then neutralized with base (250 μl of 0.5 M NaOH) and extracted into CH2Cl2 (1 ml). The samples were mixed with a vortex device and the organic (bottom) layer was removed (0.8 ml) to clean amber vials. Solvent was again removed under nitrogen, and the dried residue was dissolved in a mobile phase (100 μl) of 0.1% CF3CO2H in aqueous CH3CN (50%, v/v) for analysis.
Samples were injected (10 μl, held at 25 °C) on a 2.1 mm × 50 mm (1.7 μm) Acquity BEH octadecylsilane (C18) column (held at 40 °C) using a Waters Acquity UPLC with a flow rate of 0.2 ml min^−1 and a gradient mobile phase of (A) 0.1% aqueous HCO2H and (B) CH3CN as follows (all %B, v/v): 0 min, 40%; 0.5 min, 40%; 8 min, 100%; 8.5 min, 95%; 9 min, 100%; 9.1 min, 40%; and 10 min, 40%.

[1] abbreviates: 0.25 μM P450, 0.5 μM AdR, 10 μM Adx, 37 °C.

Turning to `CC(C)CC[C@H](O)[C@](C)(O)[C@H]1CC[C@H]2[C@@H]3CC=C4C[C@@H](O)CC[C@]4(C)[C@H]3CC[C@]12C` [20R,22S-(OH)2 Chol, (20R,22S)-Cholest-5-ene 3β,20,22-triol], the Michaelis constant (Km) – broadly, the concentration of substrate that gives half-maximal velocity – under setting [1] is 15 ± 2 µM. Further, the kcat (commonly the maximal rate divided by the concentration of active sites) under setting [1] was 0.0833 ± 0.0033 s⁻¹. Besides, under setting [1], the “kcat (conversion of sterol to pregnenolone)” value stood at 0.083 ± 0.003 s⁻¹. Further, the “kcat lower than native diol 20R,22R-(OH)2 cholesterol” value (steady state) is listed as approximately 3 fold. Also, the “rate of pregnenolone formation” value (substrate 7.5 µM) is 2.07 min⁻¹ and 1.68 min⁻¹; the “rate of pregnenolone formation” value (substrate 15 µM) is 1.97 min⁻¹ and 1.99 min⁻¹; the “rate of pregnenolone formation” value (substrate 20 µM) was 2.93 min⁻¹ and 2.88 min⁻¹; the “rate of pregnenolone formation” value (substrate 30 µM) was 3.59 min⁻¹ and 3.11 min⁻¹; the “rate of pregnenolone formation” value (substrate 40 µM) was 3.90 min⁻¹ and 4.10 min⁻¹; the “rate of pregnenolone formation” value (substrate 50 µM) is 3.70 min⁻¹ and 3.57 min⁻¹. Further, the “rate of pregnenolone formation” value reads like this: (substrate 75 µM) 4.16 min⁻¹ and 4.38 min⁻¹; (substrate 100 µM) 4.14 min⁻¹ and 4.09 min⁻¹; (substrate 150 µM) 4.64 min⁻¹ and 4.37 min⁻¹.
